According to patent US4677100A, “Cephalosporin derivatives” (Banyu Pharmaceutical Co., Ltd., priority 1984, dated 1987):
≈ marks a conversion by molar mass, not a printed value. Where two headings read alike, the source gives them in different places.

Key:
[1] = tested on: P. aeruginosa D15; assay: treatment of experimental infection of mice; type: in vivo; conditions: for ED50: Pseudomonas aeruginosa
[2] = tested on: P. aeruginosa AK109; assay: MIC, agar plate dilution method; type: cell-based, Pseudomonas aeruginosa; conditions: for MIC: Pseudomonas aeruginosa
Description: (§1) The minimum inhibitory concentrations (MIC: μg/ml) of the compounds of the present invention against various microorganisms were measured by an agar plate dilution method (inoculum size: 10^6 CFU/ml) by using Sensitivity Disk Agar (Nissui) in comparison with Cefotaxime and Ceftazidime as comparative compounds.

[3] = tested on: P. aeruginosa AKR17; assay: MIC, agar plate dilution method; type: cell-based, Pseudomonas aeruginosa; conditions: for MIC: Pseudomonas aeruginosa
Description: as §1

[4] = tested on: P. cepacia 23; assay: MIC, agar plate dilution method; type: cell-based, Pseudomonas cepacia
Description: as §1

[5] = tested on: E. coli Juhl; assay: treatment of experimental infection of mice; type: in vivo; conditions: for ED50: Escherichia coli
[6] = tested on: Gram-negative bacteria; conditions: background of the art; cited from earlier work
[7] = tested on: E. coli CSH2; assay: MIC, agar plate dilution method; type: cell-based; conditions: 10^6 CFU/ml, Sensitivity Disk Agar; for MIC: Escherichia coli, read-out: Minimum Inhibitory Concentration
Description: as §1

[8] = tested on: P. vulgaris OB1043; assay: MIC, agar plate dilution method; type: cell-based; conditions: Proteus vulgaris
Description: as §1

[9] = tested on: P. mirabilis JY10; assay: MIC, agar plate dilution method; type: cell-based; conditions: Proteus mirabilis
Description: as §1

[10] = tested on: E. coli NIHJJC-2; assay: MIC, agar plate dilution method; type: cell-based; conditions: for MIC: Escherichia coli
Description: as §1

[11] = tested on: E. coli W3630/Rms213; assay: MIC, agar plate dilution method; type: cell-based; conditions: for MIC: Escherichia coli, W3630/RMS213, read-out: Minimum Inhibitory Concentration
Description: as §1

[12] = tested on: S. aureus JS-1; assay: MIC, agar plate dilution method; type: cell-based; conditions: Staphylococcus aureus
Description: as §1

[13] = tested on: S. aureus NIHJJC-1; assay: MIC, agar plate dilution method; type: cell-based; conditions: Staphylococcus aureus
Description: as §1

[14] = tested on: S. marcescens No. 16-2; assay: MIC, agar plate dilution method; type: cell-based; conditions: Serratia marcescens
Description: as §1

[15] = tested on: C. freundii No. 7; assay: MIC, agar plate dilution method; type: cell-based; conditions: Citrobacter freundii
Description: as §1

[16] = tested on: K. pneumoniae No. 42; assay: MIC, agar plate dilution method; type: cell-based; conditions: Klebsiella pneumoniae
Description: as §1

[17] = tested on: A. calcoaceticus No. 14; assay: MIC, agar plate dilution method; type: cell-based; conditions: Acinetobacter calcoaceticus
Description: as §1

[18] = tested on: E. coli C/Rms149; assay: MIC, agar plate dilution method; type: cell-based; conditions: for MIC: Escherichia coli, read-out: Minimum Inhibitory Concentration
Description: as §1

[19] = tested on: E. coli CSH; assay: MIC, agar plate dilution method; type: cell-based; conditions: for MIC: Escherichia coli, read-out: Minimum Inhibitory Concentration
Description: as §1

[20] = tested on: E. cloaceae Nek 39; assay: MIC, agar plate dilution method; type: cell-based; conditions: read-out: Minimum Inhibitory Concentration
Description: as §1

[21] = tested on: E. coli W3630/Rms212; assay: MIC, agar plate dilution method; type: cell-based; conditions: for MIC: Escherichia coli, W3630/RMS212, read-out: Minimum Inhibitory Concentration
Description: as §1

[22] = tested on: E. coli ML1410/Rte16; assay: MIC, agar plate dilution method; type: cell-based; conditions: for MIC: Escherichia coli, ML1410/RTE16, read-out: Minimum Inhibitory Concentration
Description: as §1

[23] = tested on: P. vulgaris No. 33; assay: MIC, agar plate dilution method; type: cell-based; conditions: Proteus vulgaris
Description: as §1

[24] = tested on: P. maltophilia IID 1275; assay: MIC, agar plate dilution method; type: cell-based, Pseudomonas maltophilia; conditions: Stenotrophomonas maltophilia
Description: as §1

[25] = tested on: S. aureus Smith; assay: treatment of experimental infection of mice; type: in vivo; conditions: for ED50: Staphylococcus aureus
[26] = tested on: Gram-positive bacteria and Gram-negative bacteria; assay: antibacterial activity, general statement; type: cell-based; conditions: sensitive and resistant bacteria
Description: as §1

CC(C)(O/N=C(\C(=O)N[C@@H]1C(=O)N2C(C(=O)[O-])=C(C[n+]3ccccc3)CS[C@H]12)c1csc(N)n1)C(=O)O [Ceftazidime, reference compound]
ED50 ([1]; D15): 38 mg/kg
MIC ([2]; AK109, read-out: Minimum Inhibitory Concentration): 0.39 µg/mL (≈ 0.714 µM)
MIC ([3]; AKR17, read-out: Minimum Inhibitory Concentration): > 25 µg/mL
MIC ([4]; Burkholderia cepacia, 23, read-out: Minimum Inhibitory Concentration): 0.39 µg/mL (≈ 0.714 µM)
ED50 [5]: 0.33 mg/kg
antibacterial activity (in words) [6]: the most excellent cephalosporin derivative against Gram-negative bacteria
Minimum Inhibitory Concentration [7]: 0.1 µg/mL
MIC [7]: 0.1 µg/mL (≈ 0.183 µM)
MIC ([8]; OB1043, read-out: Minimum Inhibitory Concentration): ≤ 0.05 µg/mL
MIC ([9]; JY10, read-out: Minimum Inhibitory Concentration): ≤ 0.05 µg/mL
Minimum Inhibitory Concentration ([10]; E. coli NIHJJC-2, 10^6 CFU/ml, Sensitivity Disk Agar): 0.1 µg/mL
MIC ([10]; NIHJJC2, read-out: Minimum Inhibitory Concentration): 0.1 µg/mL (≈ 0.183 µM)
Minimum Inhibitory Concentration ([11]; E. coli W3630/Rms213, 10^6 CFU/ml, Sensitivity Disk Agar): 0.20 µg/mL
MIC [11]: 0.2 µg/mL (≈ 0.366 µM)
MIC ([12]; JS1, read-out: Minimum Inhibitory Concentration): > 25 µg/mL
MIC ([13]; NIHJJC1, read-out: Minimum Inhibitory Concentration): 3.12 µg/mL (≈ 5.71 µM)
MIC ([14]; NO.162, read-out: Minimum Inhibitory Concentration): 1.56 µg/mL (≈ 2.85 µM)
MIC ([15]; NO.7, read-out: Minimum Inhibitory Concentration): 1.56 µg/mL (≈ 2.85 µM)
MIC ([16]; NO.42, read-out: Minimum Inhibitory Concentration): 0.39 µg/mL (≈ 0.714 µM)
MIC ([17]; NO.14, read-out: Minimum Inhibitory Concentration): 6.25 µg/mL (≈ 11.4 µM)
Minimum Inhibitory Concentration ([18]; E. coli C/Rms149, 10^6 CFU/ml, Sensitivity Disk Agar): 0.20 µg/mL
MIC [18]: 0.2 µg/mL (≈ 0.366 µM)
Minimum Inhibitory Concentration ([19]; E. coli CSH, 10^6 CFU/ml, Sensitivity Disk Agar): 0.10 µg/mL
MIC [19]: 0.1 µg/mL (≈ 0.183 µM)
MIC [20]: 0.78 µg/mL (≈ 1.43 µM)
Minimum Inhibitory Concentration ([21]; E. coli W3630/Rms212, 10^6 CFU/ml, Sensitivity Disk Agar): 0.20 µg/mL
MIC [21]: 0.2 µg/mL (≈ 0.366 µM)
Minimum Inhibitory Concentration ([22]; E. coli ML1410/Rte16, 10^6 CFU/ml, Sensitivity Disk Agar): 0.20 µg/mL
MIC [22]: 0.2 µg/mL (≈ 0.366 µM)
MIC ([23]; NO.33, read-out: Minimum Inhibitory Concentration): ≤ 0.05 µg/mL
MIC ([24]; IID1275, read-out: Minimum Inhibitory Concentration): > 25 µg/mL
ED50 [25]: 11 mg/kg

CON=C(C(=O)NC1C(=O)N2C(C(=O)[O-])=C(C[N+]3(C)Cc4cc(O)c(O)cc4C3)CSC12)c1csc(N)n1 (stereo not shown) [Ex. 4-D, 7-[(Z)-2-(2-aminothiazol-4-yl)-2-methoxyiminoacetamido]-3-(5,6-dihydroxy-2-methyl-2-isoindolinium)methyl-3-cephem-4-carboxylate]
antibacterial activity (in words) [26]: particularly strong antibacterial activities
ED50 ([1]; mice infected with P. aeruginosa D15, read-out: ED50): 14 mg/kg
efficacy relative to Ceftazidime ([1]; experimental infections of mice caused by P. aeruginosa D15): about twice as high
antibacterial activity relative to the compound of Reference Example ([2]; Pseudomonas aeruginosa AK109): at least 16 times
MIC ([2]; P. aeruginosa AK109, 10^6 CFU/ml, Sensitivity Disk Agar, read-out: Minimum Inhibitory Concentration): 0.1 µg/mL (≈ 0.178 µM)
antibacterial activity relative to the compound of Reference Example ([3]; Pseudomonas aeruginosa AKR-17, resistant to all cephalosporins including Ceftazidime): at least 32 times
MIC ([3]; P. aeruginosa AKR17, 10^6 CFU/ml, Sensitivity Disk Agar, read-out: Minimum Inhibitory Concentration): 0.78 µg/mL (≈ 1.39 µM)
MIC ([4]; Burkholderia cepacia, P. cepacia 23, 10^6 CFU/ml, Sensitivity Disk Agar, read-out: Minimum Inhibitory Concentration): 0.2 µg/mL (≈ 0.357 µM)
antibacterial activity relative to the compound of Reference Example ([4]; Pseudomonas cepacia 23): at least 32 times
ED50 ([5]; mice infected with E. coli Juhl, read-out: ED50): 0.12 mg/kg
efficacy relative to Ceftazidime ([5]; experimental infections of mice caused by E. coli Juhl): about twice as high
MIC [7]: 0.2 µg/mL (≈ 0.357 µM)
MIC ([8]; P. vulgaris OB1043, 10^6 CFU/ml, Sensitivity Disk Agar, read-out: Minimum Inhibitory Concentration): 3.12 µg/mL (≈ 5.57 µM)
MIC ([9]; P. mirabilis JY10, 10^6 CFU/ml, Sensitivity Disk Agar, read-out: Minimum Inhibitory Concentration): 0.39 µg/mL (≈ 0.696 µM)
MIC ([10]; NIHJJC2, E. coli NIHJJC-2, 10^6 CFU/ml, Sensitivity Disk Agar, read-out: Minimum Inhibitory Concentration): ≤ 0.05 µg/mL
MIC [11]: 0.78 µg/mL (≈ 1.39 µM)
MIC ([12]; JS1, S. aureus JS-1, 10^6 CFU/ml, Sensitivity Disk Agar, read-out: Minimum Inhibitory Concentration): 25 µg/mL (≈ 44.6 µM)
MIC ([13]; NIHJJC1, S. aureus NIHJJC-1, 10^6 CFU/ml, Sensitivity Disk Agar, read-out: Minimum Inhibitory Concentration): 6.25 µg/mL (≈ 11.1 µM)
MIC ([14]; NO.162, S. marcescens No. 16-2, 10^6 CFU/ml, Sensitivity Disk Agar, read-out: Minimum Inhibitory Concentration): 6.25 µg/mL (≈ 11.1 µM)
MIC ([15]; C. freundii No. 7, 10^6 CFU/ml, Sensitivity Disk Agar, read-out: Minimum Inhibitory Concentration): 6.25 µg/mL (≈ 11.1 µM)
MIC ([16]; K. pneumoniae No. 42, 10^6 CFU/ml, Sensitivity Disk Agar, read-out: Minimum Inhibitory Concentration): 0.2 µg/mL (≈ 0.357 µM)
antibacterial activity relative to the compound of Reference Example [17]: at least 32 times
MIC ([17]; A. calcoaceticus No. 14, 10^6 CFU/ml, Sensitivity Disk Agar, read-out: Minimum Inhibitory Concentration): 0.2 µg/mL (≈ 0.357 µM)
MIC [18]: 0.1 µg/mL (≈ 0.178 µM)
MIC [19]: 1.56 µg/mL (≈ 2.78 µM)
MIC ([20]; E. cloaceae Nek 39, 10^6 CFU/ml, Sensitivity Disk Agar): ≤ 0.05 µg/mL
MIC [21]: ≤ 0.05 µg/mL
MIC [22]: 0.1 µg/mL (≈ 0.178 µM)
MIC ([23]; P. vulgaris No. 33, 10^6 CFU/ml, Sensitivity Disk Agar, read-out: Minimum Inhibitory Concentration): 0.78 µg/mL (≈ 1.39 µM)
MIC ([24]; IID1275, P. maltophilia IID 1275, 10^6 CFU/ml, Sensitivity Disk Agar, read-out: Minimum Inhibitory Concentration): 25 µg/mL (≈ 44.6 µM)
ED50 ([25]; mice infected with S. aureus Smith, read-out: ED50): 6.2 mg/kg
efficacy relative to Ceftazidime ([25]; experimental infections of mice caused by S. aureus Smith): about twice as high
